Assay results: PubChem BioAssay AID179 (DTP/NCI, 2004)
Activity calls are given as the source filed them.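 How the source made its calls: active means compounds giving half or more protection of infected cells from virus-caused growth loss, again on retest; inactive means the rest.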 Where a SMILES comes first, the peptide text is derived from it.

System: CEM cells HIV-1 protection, formazan growth assay
Test: NCI AIDS Antiviral Assay
Conditions: for IC50: measured here: growth of uninfected CEM cells
Protocol: The ability of compounds to protect human CEM cells from HIV-1 infection is measured as a screen for new compounds capable of inhibiting the HIV virus. Five concentrations of drug were tested on uninfected and infected cells and cell growth was measured using a soluble formazan assay. […] Compounds that provided at least 50% protection were retested. Compounds that provided at least 50% protection on retest were listed as moderately active. Compounds that reproducibly provided 100% protection were listed as confirmed active. […] Note that the inability to provide protection could be due to toxicity.

| Structure (SMILES) | EC50 [µM] | IC50 [µM] | outcome |
| --- | --- | --- | --- |
| O=S(=O)(c1ccc(Cl)cc1)c1ccccc1C1=NCCN1 | > 200 | > 200 | – |
| CCCCCCCCCCCC(=O)OCC1OC(n2cc(F)c(=O)[nH]c2=O)C(N)C(OC(=O)CCCCCCCCCCC)C1O (stereo unspecified) | > 3.02 | > 3.02 | – |
| CC(c1ccccc1)N1OC1(c1ccccc1)c1ccccc1 (stereo unspecified) | > 105 | 14.5 | – |
| O=C1CN(c2ccccc2)CC(=O)N2C(c3ccccc3)CCCN12 (stereo unspecified) | – | – | inactive |
| COc1cccc(N=N/C(=N/NC(=O)c2cc(Cl)ccc2O)c2ccc(N(CCC#N)CCC#N)cc2C)c1 | > 200 | 29.5 | – |
| Cc1ccc(S(=O)(=O)N/N=C2/CCCOC2)cc1 | > 200 | 138 | – |
| C/C(CCn1[nH]c(=O)ccc1=O)=N\N=C(N)N | > 4.37 | > 4.37 | – |
| O=c1[nH]cc(N=Nc2ccc(S(=O)(=O)Nc3ccccn3)cc2)cc1O | > 200 | 87.1 | – |
| Cc1c(C(=O)O)n(C)c(=O)n(C)c1=O | – | – | inactive |
| CN(C)c1ccc(/C=N/N(Cc2ccccc2)c2ccccc2)cc1 | > 6.03 | > 6.03 | – |
| CC1=Nn2c(nnc2-c2ccc(Cl)cc2)NC(C)(C)C1 | > 61.7 | > 61.7 | – |
| Cc1cccc(NP2(=O)NCCCN2)c1 | 316 | 398 | – |
| CCCCCCOC(=O)c1[nH]c(=O)[nH]c(=O)c1N | > 200 | > 200 | – |
| Cc1cc(-c2c(O)c3ccc4ccccc4c3oc2=O)no1 | > 20 | > 20 | – |
| C[C@H]1[C@H](NC(=O)/C(=N\OC(C)(C)C(=O)O)c2csc(N)n2)C(=O)N1S(=O)(=O)O | > 575 | > 575 | – |
| O=C(Nc1ccc(Oc2ccc(Cl)cc2)c(Cl)c1)c1cc(I)cc(I)c1O | > 200 | 11.5 | – |
| CCC(C)C(NC(=O)C(CCC(N)=O)NC(=O)C1CCCN1)C(=O)NC(C(=O)NC(CC(C)C)C(=O)O)C(C)O (stereo unspecified) (H-PQITL-OH; configuration not given here) | – | – | inactive |
| CCOC(=O)C1S(=O)(=O)OCCOS1(=O)=O | > 5750 | 3470 | – |
| O=S(C/C=C/CS(=O)c1ccccc1)c1ccccc1 (stereo unspecified) | > 813 | 70.8 | – |
| N#C/C(=C\c1ccccc1)c1cccc(Br)c1 | > 200 | > 200 | – |
| CC1=CC23C(COC(=O)C24CO4)C(C(=O)O)=CC3C1C (stereo unspecified) (tested in a mixture with another compound) | > 200 | 47.9 | – |

| Structure (SMILES) | EC50 [µM] | IC50 [µM] | outcome |
| --- | --- | --- | --- |
| O=c1[nH]c(=O)n(C2CC(F)C(CO)O2)cc1C(OCC(F)(F)F)OCC(F)(F)F (stereo unspecified) | 37.2 | 195 | – |
| O=C(Nc1nc(C23CC4CC(CC(C4)C2)C3)cs1)c1cc2cc(Br)cc(Br)c2oc1=O | > 200 | 135 | – |
| Cn1c(=O)c2[nH]c(NN)nc2n(C)c1=O | > 200 | 105 | – |
| Cc1cc2nn(C3CCCO3)nc2cc1C (stereo unspecified) | > 200 | > 200 | – |
| NCCCCC(NC(=O)C(Cc1cnc[nH]1)NC(=O)CN)C(=O)O.[Cu+2] (stereo unspecified) | > 200 | 70.8 | – |
| CC[C@H]1CN(C)[C@H]2Cc3c([nH]c4ccccc34)C(=O)C[C@H]1C2C(=O)OC (stereo partly specified) | > 129 | > 129 | – |
| CCC1(O)C(=O)OCc2c1cc(-c1ccc(Cl)cc1)nc2OC (stereo unspecified) | > 200 | > 200 | – |
| O=c1[nH]nc(Cc2ccc([N+](=O)[O-])cc2)n1CCO | > 200 | > 200 | – |
| Cc1ccc(SSCCCCCS(=O)O)cc1 | – | – | inactive |
| O=C(CSc1nnc(-c2ccc(N=Cc3ccc(Cl)cc3)cc2)o1)Nc1ccc(Cl)cc1Cl | > 34.7 | 25.1 | – |
| COc1cc(C2=NN(C)C(c3ccc([N+](=O)[O-])o3)C2)cc(OC)c1OC (stereo unspecified) | > 83.2 | 32.4 | – |
| CCC(CCl)NC(=O)Nc1ccc(S(=O)(=O)c2ccc([N+](=O)[O-])cc2)cc1 (stereo unspecified) | > 11 | 8.71 | – |
| CCOC(=O)c1sc2[n+](c1C)C(=O)/C(=C/c1ccc([N+](=O)[O-])cc1)S2 | > 200 | 20.4 | – |
| COc1ccc(C2CCC(=O)CC2(O)C(=O)O)cc1 (stereo unspecified) | > 251 | > 251 | – |
| O=C(/C=C/c1ccc(OCC(=O)N2CCN(c3ccccc3)CC2)cc1)c1ccc(Cl)cc1 | > 29.5 | > 29.5 | – |
| CCCCc1c(N(C)C)c(OC(C)=O)c(-c2cn(C)c3ccccc23)oc1=O | > 200 | 31.6 | – |
| CSc1nnc2sc3cc(C)ccc3n12 | > 200 | 123 | – |
| CC(=O)C1(N=Nc2ccc(S(=O)(=O)Nc3nnc(C)s3)cc2)CCOC1=O (stereo unspecified) | > 200 | > 200 | – |
| COC(=O)Nc1nc2ccc(C(=O)c3ccccc3)cc2[nH]1 | > 2 | 0.0692 | – |
| COC(=O)c1ccccc1CC(Cc1ccc2c(c1)CCC2)C(=O)OC (stereo unspecified) | > 200 | 56.2 | – |
| O=c1n(-c2ccccc2)c2nc3ccccc3nc2n1-c1ccc(Cl)c(Cl)c1 | > 61.7 | 30.2 | – |

| Structure (SMILES) | EC50 [µM] | IC50 [µM] | outcome |
| --- | --- | --- | --- |
| COc1cc2nncc(SCc3ccc(Cl)cc3)c2cc1OC | > 77.6 | > 77.6 | – |
| OCC1OC2NC(=S)OC2C1O (stereo unspecified) | > 200 | > 200 | – |
| COc1ccc(/C=C/C(=O)c2ccccc2)cc1OC | > 97.7 | 18.2 | – |
| COc1ccc(C2Oc3c(c(O)cc4c3[C@H](c3ccc(O)cc3O)[C@H](O)C(c3ccc(O)c(O)c3)O4)C[C@@H]2O)cc1O (stereo partly specified) | – | – | inactive |
| COc1ccc(Cc2c(N)[nH]c(=O)n(C)c2=O)cc1 | > 200 | 89.1 | – |
| CCOc1ccc(N2C(=O)NC3(c4ccccc4)N(C)C(=O)N(C)C23c2ccccc2)cc1 (stereo unspecified) | – | – | inactive |
| OCC1OC(n2cnc3c(Cl)nc(Nc4ccc(Cl)c(Cl)c4)nc32)CC1O (stereo unspecified) | > 200 | 3.72 | – |
| CC(C)n1cc(C(C)(C)C)nc1SSc1nc(C(C)(C)C)cn1C(C)C | > 200 | > 200 | – |
| CCOC(=O)NC(Nc1cc(Cl)ccc1OC)(C(F)(F)F)C(F)(F)F | > 200 | 102 | – |
| O=C(CCCN1CCC(O)(c2cccc(C(F)(F)F)c2)CC1)c1ccc(F)cc1 | > 302 | 53.7 | – |
| N#C[C@@H](c1ccccn1)c1ncccc1[N+](=O)[O-] | > 200 | > 200 | – |
| Clc1ccc(/C=N\N2CCCCCC2)cc1Cl | > 200 | 35.5 | – |
| CC(=O)OCC(OC(C)=O)C(OC(C)=O)C(OC(C)=O)C(/C=N\Nc1nc2ccccc2c(=O)[nH]1)OC(C)=O (stereo unspecified) | > 200 | > 200 | – |
| CC(C)(C)c1cc(C2COC(=O)COCC(=O)OCCOCCOCCO2)cc(C(C)(C)C)c1O (stereo unspecified) | > 200 | 95.5 | – |
| C=CCOc1ccc(Sc2c(O)cc(-c3ccccc3)oc2=O)c(C(C)(C)C)c1 | > 200 | 31.6 | – |
| O=C1C2c3[nH]c4ccccc4c3C3CCSCC3C2C(=O)N1c1ccccc1 (stereo unspecified) | – | – | inactive |
| COc1cccc(N2N=C3c4ccccc4-n4c(nc5ccccc54)C3C2N)c1 (stereo unspecified) | > 200 | > 200 | – |
| CCO[C@@H]1OC(=O)[C@H]2C(c3ccccc3Cl)=NO[C@@H]12 | > 178 | > 178 | – |
| O=C1CSC(/C(=C\c2ccc(Cl)cc2)c2nc3ccccc3[nH]2)=N1 | > 10 | > 10 | – |
| O=C(CBr)OCCCS(=O)(=O)O | > 200 | > 200 | – |
| O=C(CNc1ccccc1C(=O)O)Nn1cnc2ccc(S(=O)(=O)Nc3ccccc3C(=O)O)cc2c1=O | > 200 | > 200 | – |

| Structure (SMILES) | EC50 [µM] | IC50 [µM] | outcome |
| --- | --- | --- | --- |
| Cc1ccc(/C=N/Nc2ccc3ccccc3n2)s1 | > 200 | 21.4 | – |
| COc1ccc(N2C(=O)/C(=C\c3cccc(Oc4ccccc4)c3)S(=O)(=O)C2c2ccccc2)cc1 (stereo unspecified) | > 200 | 28.8 | – |
| O=C(Nc1ccc(N=C(Nc2ccccc2)c2ccccc2)cc1)c1ccc(C(=O)Nc2ccc(N=C(Nc3ccccc3)c3ccccc3)cc2)cc1 | > 200 | 18.2 | – |
| CS(=O)(=O)c1c(N)c2nc(Cl)cn2c2nc3ccccc3nc12 | > 5.75 | > 5.75 | – |
| CCCc1cc(=O)oc2c3c(cc(OC)c12)O[C@H](C)C(C)[C@H]3O (stereo partly specified) | > 200 | 51.3 | – |
| O=C1c2ccccc2N2OC3(N4CCCC4)CCCC3C12c1ccccc1 (stereo unspecified) | > 38 | > 38 | – |
| C/C(=N/NC(=S)N1CCCCCC1)c1ccccc1O | > 200 | 4.27 | – |
| O=C1CCCCC/C1=C\c1ccc(Cl)cc1 | > 200 | 27.5 | – |
| Cc1ccccc1CC1(Br)CC(C)(C)c2ccccc2C1=O (stereo unspecified) | > 200 | 29.5 | – |
| Cc1ccc(C2=NN(C)COC2C(F)(F)F)cc1 (stereo unspecified) | > 28.2 | > 28.2 | – |
| CC(=O)Nc1cc(N=Nc2ccc(NC(=O)c3ccc(N)cc3)cc2C)c(S(=O)(=O)O)cc1N=Nc1ccc(N=Nc2ccc(S(=O)(=O)O)cc2)cc1 | 5.62 | > 100 | – |
| CC(=O)OCC1OC(N2C(C)=C(C(C)=O)C(c3ccco3)C(C#N)=C2S)C(OC(C)=O)C(OC(C)=O)C1OC(C)=O (stereo unspecified) | > 200 | 110 | – |
| O=C(CC(C(=O)c1ccsc1)c1cccs1)c1ccsc1 (stereo unspecified) | > 200 | 15.5 | – |
| CCOC(=O)C1=C(OC(OCC)C(C)[Se]c2ccccc2)CCC1 (stereo unspecified) | > 46.8 | 42.7 | – |
| O=[N+]([O-])c1cc(Cl)cc2cc(Cl)cnc12 | > 200 | > 200 | – |
| Cc1ccc(C2SC(N)=Nc3c2c(C)nn3C(=O)c2ccccc2O)cc1 (stereo unspecified) | > 20 | 0.603 | – |
| COc1cc2c(cc1OC)C(=O)/C(=C/c1ccc([N+](=O)[O-])cc1)CC2 | 155 | > 200 | – |
| C1CN(SSN2CCOCC2)CCO1 | > 200 | 126 | – |
| O=C(O)c1cc(=O)[nH]c(O)c1N=Nc1ccc(/C=C/c2ccc(N=Nc3c(C(=O)O)cc(=O)[nH]c3O)cc2S(=O)(=O)O)c(S(=O)(=O)O)c1 | > 200 | 102 | – |
| COc1c(Cc2cc(Cl)cc(S(=O)(=O)N(C)C)c2OC)cc(Cl)cc1S(=O)(=O)N(C)C | > 14.1 | > 14.1 | – |
| CCOC(=O)C(C(=O)OCC)S(C)(=O)=O | > 251 | > 251 | – |
